In general, EC50 refers to the concentration at which the effect is half-maximal. As usually defined, the CC50 is the concentration that lowers cell viability or growth by half. For orientation: AC50 means the midpoint of the concentration-response curve, whichever way the signal moves.

For test [1], the target named is T1, Heat shock factor protein 1 (Mus musculus, UniProt P38532).
T1 sequence (P38532 whole entry): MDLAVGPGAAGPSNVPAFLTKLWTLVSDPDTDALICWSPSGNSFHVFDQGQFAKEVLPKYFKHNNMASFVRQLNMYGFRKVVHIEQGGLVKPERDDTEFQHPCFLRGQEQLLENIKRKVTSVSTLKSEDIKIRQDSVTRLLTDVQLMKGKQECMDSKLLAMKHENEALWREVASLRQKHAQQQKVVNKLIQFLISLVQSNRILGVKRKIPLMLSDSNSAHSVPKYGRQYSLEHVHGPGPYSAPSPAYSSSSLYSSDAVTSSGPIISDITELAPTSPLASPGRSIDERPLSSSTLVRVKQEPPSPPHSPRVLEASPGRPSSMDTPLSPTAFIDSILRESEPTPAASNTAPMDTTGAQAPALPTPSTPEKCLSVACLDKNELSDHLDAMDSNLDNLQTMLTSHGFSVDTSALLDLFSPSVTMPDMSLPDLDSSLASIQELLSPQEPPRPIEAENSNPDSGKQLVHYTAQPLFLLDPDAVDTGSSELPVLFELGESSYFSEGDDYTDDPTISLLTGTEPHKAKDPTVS
As to the kind of experiment: decrease of HSF1-responsive luciferase luminescence – cell-based, NIH3T3, dose retest, confirmation (AID 2382).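 Further: NIH3T3 fibroblasts with HSF1-driven luciferase reporter stressed by proteasome inhibitor MG132; luminescence from HSF1-driven luciferase expression after 8 hours of MG132 stress.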 Format: functional.

Test [2] has as its target T2, Methionyl-tRNA synthetase, putative (Trypanosoma brucei brucei, UniProt Q38C91). Format: functional, Trypanosoma brucei brucei strain 927/4 GUTat10.1.
Test [3] has as its target T2, Methionyl-tRNA synthetase, putative. The test is classed as functional, Trypanosoma brucei brucei strain 927/4 GUTat10.1. This is another data set of the same source.
Test [4] has as its target T3, Low molecular weight phosphotyrosine protein phosphatase (Homo sapiens, UniProt P24666).
T3 sequence (P24666 whole entry): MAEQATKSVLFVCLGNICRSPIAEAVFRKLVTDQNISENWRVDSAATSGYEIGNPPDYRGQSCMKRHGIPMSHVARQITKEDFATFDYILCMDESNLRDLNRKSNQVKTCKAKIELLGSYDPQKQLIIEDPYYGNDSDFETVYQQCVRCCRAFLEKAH
The test is classed as functional. To be noted: read-out: IC50_Mean.

Test [5] addresses T3, Low molecular weight phosphotyrosine protein phosphatase. Format: functional. To be noted: read-out: IC50_Mean. The source holds these as a separate data set.
Test [6] concerns the target T4, Small ubiquitin-related modifier 1 (Homo sapiens, UniProt P63165). As to the kind of experiment: SUMO1 protein interaction blockers, potency – biochemical, fluorescence polarization, uHTS hits, dose response (AID 624382). Conditions: read-out: IC50_Mean. The test is classed as functional. For orientation: Polarisation of emitted light reports the rotation of a fluorescent probe.

Test [7] deals with T4, Small ubiquitin-related modifier 1. As to the kind of experiment: SUMO1 protein-protein binding blockers, potency – biochemical, FRET, dose response (AID 624383). Format: functional. Conditions: read-out: IC50_Mean.
The target of test [8] is T5, Sentrin-specific protease 1 (Homo sapiens, UniProt Q9P0U3). Description: SENP1 catalytic domain blockers, concentration series – biochemical, kinetic FRET, dose response (AID 651697). Format: functional. To be noted: read-out: IC50_Mean.
T5 sequence (Q9P0U3 whole entry, the tested form may be a part): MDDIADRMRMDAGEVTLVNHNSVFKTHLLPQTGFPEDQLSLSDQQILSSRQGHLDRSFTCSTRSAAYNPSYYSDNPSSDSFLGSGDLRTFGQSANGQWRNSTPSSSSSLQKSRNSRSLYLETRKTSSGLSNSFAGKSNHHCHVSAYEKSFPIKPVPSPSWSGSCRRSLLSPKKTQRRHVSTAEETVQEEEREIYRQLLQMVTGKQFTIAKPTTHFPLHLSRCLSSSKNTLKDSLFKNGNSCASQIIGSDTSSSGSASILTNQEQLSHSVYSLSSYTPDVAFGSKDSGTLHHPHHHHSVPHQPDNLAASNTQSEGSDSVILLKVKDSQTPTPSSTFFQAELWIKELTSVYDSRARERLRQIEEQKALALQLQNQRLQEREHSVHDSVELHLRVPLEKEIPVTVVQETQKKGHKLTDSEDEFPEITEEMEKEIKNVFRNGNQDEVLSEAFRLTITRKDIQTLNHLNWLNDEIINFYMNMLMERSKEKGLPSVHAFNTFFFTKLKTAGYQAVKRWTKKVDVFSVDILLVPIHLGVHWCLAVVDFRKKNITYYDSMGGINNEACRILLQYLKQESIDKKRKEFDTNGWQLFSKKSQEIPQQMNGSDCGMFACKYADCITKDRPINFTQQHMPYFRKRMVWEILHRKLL
Test [9] addresses T6, Rac GTPase-activating protein 1 (Homo sapiens, UniProt Q9H0H5).
T6 sequence (Q9H0H5 whole entry): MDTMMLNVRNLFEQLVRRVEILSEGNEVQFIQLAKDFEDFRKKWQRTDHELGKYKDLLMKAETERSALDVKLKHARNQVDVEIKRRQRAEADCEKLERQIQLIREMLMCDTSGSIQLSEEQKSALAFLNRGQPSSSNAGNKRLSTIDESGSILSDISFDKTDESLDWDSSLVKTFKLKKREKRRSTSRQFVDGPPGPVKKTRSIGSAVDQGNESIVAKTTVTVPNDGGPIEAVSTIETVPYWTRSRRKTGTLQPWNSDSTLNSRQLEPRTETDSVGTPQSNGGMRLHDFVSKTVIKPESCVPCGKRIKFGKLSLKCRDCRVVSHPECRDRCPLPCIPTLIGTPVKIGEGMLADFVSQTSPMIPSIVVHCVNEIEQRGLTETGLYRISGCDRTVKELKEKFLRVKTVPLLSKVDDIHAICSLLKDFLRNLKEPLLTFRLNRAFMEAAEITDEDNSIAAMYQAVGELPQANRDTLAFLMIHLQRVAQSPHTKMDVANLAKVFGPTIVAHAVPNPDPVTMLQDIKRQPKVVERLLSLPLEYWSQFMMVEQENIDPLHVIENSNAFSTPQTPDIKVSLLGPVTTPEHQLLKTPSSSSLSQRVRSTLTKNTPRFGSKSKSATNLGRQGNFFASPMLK
As to the kind of experiment: blockers of MgcRacGAP-driven Rac1 GTP hydrolysis – biochemical, ADP Hunter fluorescence, primary and confirmatory, confirmation (AID 624330). Format: functional.

Test [10] addresses T5, Sentrin-specific protease 1. Description: Dose response confirmation of small molecule inhibitors of the catalytic domain of the SUMO protease, SENP1 in a FRET assay. Format: functional. Conditions: read-out: IC50_Mean.
The nature of test [11]: NIH3T3 cell viability loss – ATP luminescence, mouse fibroblasts, counter-screen, dose response (AID 2010).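 Further: cells exposed to compound for about 90 hours before reading.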 The test is classed as functional, cell-based. On the technique in general: Counterscreens check selectivity or assay interference.
The nature of test [12]: viability loss in HeLa cells – cytotoxicity control for MgcRacGAP inhibitor project, dose response (AID 624300). The test is classed as functional.
The test system of test [13] is BJ. Description: cells. The test is classed as functional, cell-based. To be noted: Homo sapiens.
Test [14] in a line: Trypanosoma cruzi growth suppression in host cells – NIH3T3 host cells, beta-gal luminescence, confirmation (AID 2044).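 Further: intracellular parasites grown in NIH/3T3 mouse fibroblasts as host cells; luminescent beta-galactosidase reporter signal from transgenic T. cruzi replicating inside host cells; inhibitors lower the luminescence signal.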 Format: functional, cell-based.
The nature of test [15]: DRD fibroblast viability loss – cell-based, non-viral oncogenic, luminescence, dose response (AID 1934). To be noted: Homo sapiens. Format: functional.
Test [16] can be described thus: general cell-killing toxicity readout – plate reader, dry powder samples, cytotoxicity control for PAX8 inhibitor project, dose response (AID 743021). The test is classed as functional, cell-based.
Test [17] addresses Neurotensin receptor type 1 (Homo sapiens, UniProt P30989). Format: functional.
Test [18] relates to BJ. As to the kind of experiment: BJ-TERT fibroblast viability loss – cell-based, RAS-independent, luminescence, dose response (AID 1933). The test is classed as functional. To be noted: Homo sapiens.
A further test has as its system INS1. Description: INS-1E survival protection against cytokine death – cell-based, luminescence, retest, dose response (AID 449756).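 Further: cell death triggered by IL-1 beta plus TNF-alpha plus IFN-gamma mixture; protective hits raise ATP signal compared with cytokine alone wells.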 Conditions: Rattus norvegicus. Format: functional.
For test [19], the system named is BJ. As to the kind of experiment: BJ-TERT-LT-ST fibroblast viability loss – cell-based, RAS-independent, luminescence, dose response (AID 1935).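 Further: BJ fibroblasts immortalized with TERT plus LT and ST oncogenes.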 Format: functional. To be noted: Homo sapiens.
A further test deals with Paired box protein Pax-8 (Homo sapiens, UniProt Q06710). As to the kind of experiment: PAX8 transcriptional activity inhibition in RMG-I – RMG-I cells, luciferase, cherry-pick, dose response (AID 687027).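 Further: luciferase reporter driven by Pax8 target thyroperoxidase promoter measured by SteadyGlo luminescence.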 The test is classed as functional, cell-based.
Chain of Paired box protein Pax-8 (Q06710 whole entry): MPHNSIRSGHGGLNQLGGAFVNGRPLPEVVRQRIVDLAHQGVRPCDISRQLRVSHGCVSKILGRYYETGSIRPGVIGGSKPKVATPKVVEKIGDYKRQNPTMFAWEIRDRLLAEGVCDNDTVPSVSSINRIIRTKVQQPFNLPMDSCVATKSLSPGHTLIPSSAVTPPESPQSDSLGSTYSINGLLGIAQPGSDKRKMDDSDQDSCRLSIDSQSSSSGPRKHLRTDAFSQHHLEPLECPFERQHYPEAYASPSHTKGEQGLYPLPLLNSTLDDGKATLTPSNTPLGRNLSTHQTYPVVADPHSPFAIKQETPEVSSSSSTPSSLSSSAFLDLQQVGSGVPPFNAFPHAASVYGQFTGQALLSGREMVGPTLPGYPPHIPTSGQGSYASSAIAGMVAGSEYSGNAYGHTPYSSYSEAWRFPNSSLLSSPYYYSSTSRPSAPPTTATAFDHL
Test [20] has as its target T7, DNA repair protein RAD52 homolog (Homo sapiens, UniProt P43351).
T7 sequence (P43351 whole entry): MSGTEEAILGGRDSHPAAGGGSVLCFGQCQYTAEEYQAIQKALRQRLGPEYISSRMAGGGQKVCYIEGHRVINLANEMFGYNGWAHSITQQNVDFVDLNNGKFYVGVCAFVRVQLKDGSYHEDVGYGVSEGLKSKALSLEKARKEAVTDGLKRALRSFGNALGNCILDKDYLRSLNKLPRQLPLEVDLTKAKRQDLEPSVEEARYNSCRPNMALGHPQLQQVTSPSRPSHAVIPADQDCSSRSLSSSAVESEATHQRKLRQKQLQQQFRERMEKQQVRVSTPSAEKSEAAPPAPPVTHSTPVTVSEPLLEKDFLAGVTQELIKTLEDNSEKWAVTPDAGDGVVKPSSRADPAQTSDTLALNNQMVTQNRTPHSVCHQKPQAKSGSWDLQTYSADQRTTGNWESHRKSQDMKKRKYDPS
Format: functional, biochemical.

For test [21], the target named is Nuclear receptor subfamily 5 group A member 2 (Homo sapiens, UniProt O00482). The test is classed as functional, cell-based.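 Further: HEK293T cells transfected with LRH-1 and a StAR promoter luciferase reporter; potency for inhibitors that lower LRH-1 driven reporter light.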
Chain of Nuclear receptor subfamily 5 group A member 2 (O00482 whole entry): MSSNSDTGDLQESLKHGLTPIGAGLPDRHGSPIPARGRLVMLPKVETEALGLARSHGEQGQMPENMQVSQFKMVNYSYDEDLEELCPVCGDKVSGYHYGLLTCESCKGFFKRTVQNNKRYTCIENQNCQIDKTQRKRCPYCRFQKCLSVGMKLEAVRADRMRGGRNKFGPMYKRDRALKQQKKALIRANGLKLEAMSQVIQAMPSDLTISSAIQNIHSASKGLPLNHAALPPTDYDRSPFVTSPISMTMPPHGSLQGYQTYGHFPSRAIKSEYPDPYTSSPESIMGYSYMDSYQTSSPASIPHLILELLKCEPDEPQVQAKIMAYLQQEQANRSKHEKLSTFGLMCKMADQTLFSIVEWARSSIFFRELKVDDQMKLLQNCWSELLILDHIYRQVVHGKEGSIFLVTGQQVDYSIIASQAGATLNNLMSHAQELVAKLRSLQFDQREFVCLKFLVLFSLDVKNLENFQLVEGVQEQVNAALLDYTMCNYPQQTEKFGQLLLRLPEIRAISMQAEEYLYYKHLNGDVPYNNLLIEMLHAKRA
The next test concerns the target Steroidogenic factor 1 (Homo sapiens, UniProt Q13285). As to the kind of experiment: Counterscreen for inverse agonists of the liver receptor homolog-1 (LRH-1; NR5A2): Luminescence-based cell-based high throughput dose response assay to identify inverse agonists of the Steroidogenic Factor 1 Nuclear Receptor (SF1; NR5A1). The test is classed as functional.
Test [22] in a line: nonselective StAR promoter luciferase inhibitors – cell-based, luminescence, luciferase reporter, counter-screen for LRH-1 inverse agonist project, dose response (AID 651969). The test is classed as functional. On the technique in general: In a reporter assay the amount or activity of a reporter protein is the signal.
The nature of test [23]: Counterscreen for inhibitors of Trypanosoma brucei methionyl tRNA synthetase (MetRS): Luminescence-based cell-based high throughput dose response assay to identify compounds that are cytotoxic to Jurkat human T lymphocyte cells. Format: functional.
The target in test [24] is T8, Probable nicotinate-nucleotide adenylyltransferase (Staphylococcus aureus (strain N315), UniProt P65502). The test is classed as functional, Staphylococcus aureus subsp. aureus N315. Conditions: read-out: IC50_Mean.
T8 sequence (P65502 whole entry): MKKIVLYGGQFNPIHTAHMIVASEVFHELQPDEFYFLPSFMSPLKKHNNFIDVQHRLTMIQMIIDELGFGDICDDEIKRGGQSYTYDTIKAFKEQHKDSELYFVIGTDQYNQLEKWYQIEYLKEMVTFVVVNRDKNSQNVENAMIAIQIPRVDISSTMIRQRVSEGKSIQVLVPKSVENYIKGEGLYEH
Test [25] addresses T8, Probable nicotinate-nucleotide adenylyltransferase. The test is classed as functional, Staphylococcus aureus subsp. aureus N315.
In test [26] the target is T9, Microphthalmia-associated transcription factor (Homo sapiens, UniProt O75030).
T9 sequence (O75030 whole entry): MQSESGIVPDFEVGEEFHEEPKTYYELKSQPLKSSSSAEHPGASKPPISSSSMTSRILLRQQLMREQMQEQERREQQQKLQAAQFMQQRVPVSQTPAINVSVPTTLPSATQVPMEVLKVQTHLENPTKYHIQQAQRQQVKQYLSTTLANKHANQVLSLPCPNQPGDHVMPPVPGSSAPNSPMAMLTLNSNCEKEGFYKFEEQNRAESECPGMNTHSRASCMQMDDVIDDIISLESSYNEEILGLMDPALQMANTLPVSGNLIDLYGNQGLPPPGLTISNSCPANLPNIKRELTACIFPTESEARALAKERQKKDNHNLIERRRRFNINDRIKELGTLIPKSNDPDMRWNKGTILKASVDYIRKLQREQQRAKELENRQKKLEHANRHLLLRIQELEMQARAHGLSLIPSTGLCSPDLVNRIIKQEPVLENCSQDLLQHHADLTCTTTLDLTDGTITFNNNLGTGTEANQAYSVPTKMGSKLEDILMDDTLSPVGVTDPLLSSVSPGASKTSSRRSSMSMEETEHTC
As to the kind of experiment: reducers of TRPM1 reporter luminescence, concentration series – cell-based, SK-MEL-5, cherry-picked, set 3, MITF inhibitor project, dose response (AID 493073).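 Further: SK-MEL-5 melanoma cells with luciferase driven by the MITF target TRPM1 promoter.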 The test is classed as functional.

A short description of test [27]: loss of viability in HepG2 cells – cell-based, CellTiter-Glo, cherry-picked, cytotoxicity control for Shn3 inhibitor project, dose response (AID 624134). Format: functional.
In test [28] the target is Photoreceptor-specific nuclear receptor (Homo sapiens, UniProt Q9Y5X4). Format: functional, cell-based.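 Further: CHO-S cells with Gal4-NCOR and VP16-NR2E3 two-hybrid luciferase reporter.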
Chain of Photoreceptor-specific nuclear receptor (Q9Y5X4 whole entry, the tested form may be a part): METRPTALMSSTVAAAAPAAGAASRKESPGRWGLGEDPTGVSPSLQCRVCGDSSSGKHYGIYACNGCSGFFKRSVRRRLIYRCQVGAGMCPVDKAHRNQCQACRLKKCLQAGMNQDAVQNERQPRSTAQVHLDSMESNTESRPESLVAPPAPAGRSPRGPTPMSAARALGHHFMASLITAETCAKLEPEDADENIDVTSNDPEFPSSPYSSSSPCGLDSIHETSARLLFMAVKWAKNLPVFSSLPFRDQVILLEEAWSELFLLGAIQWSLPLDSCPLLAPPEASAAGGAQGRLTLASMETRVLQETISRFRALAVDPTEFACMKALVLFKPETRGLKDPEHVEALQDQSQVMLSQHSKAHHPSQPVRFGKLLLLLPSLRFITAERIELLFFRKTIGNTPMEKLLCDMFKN
Test [29] can be described thus: reduction of Shn3 3'UTR-driven luciferase in osteoblasts – cell-based, Clone20 osteoblasts, firefly luciferase, cherry-picked, dose response (AID 624132).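 Further: firefly luciferase luminescence from reporter carrying the Shn3 3'UTR in osteoblasts.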 The test is classed as functional.

The source made the active and inactive calls. Bounds are passed on as bounds.

T4 sequence (P63165 whole entry): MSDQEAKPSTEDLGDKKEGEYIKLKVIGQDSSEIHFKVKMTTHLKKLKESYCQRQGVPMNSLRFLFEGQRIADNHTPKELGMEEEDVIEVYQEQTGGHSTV
T2 sequence (Q38C91 whole entry): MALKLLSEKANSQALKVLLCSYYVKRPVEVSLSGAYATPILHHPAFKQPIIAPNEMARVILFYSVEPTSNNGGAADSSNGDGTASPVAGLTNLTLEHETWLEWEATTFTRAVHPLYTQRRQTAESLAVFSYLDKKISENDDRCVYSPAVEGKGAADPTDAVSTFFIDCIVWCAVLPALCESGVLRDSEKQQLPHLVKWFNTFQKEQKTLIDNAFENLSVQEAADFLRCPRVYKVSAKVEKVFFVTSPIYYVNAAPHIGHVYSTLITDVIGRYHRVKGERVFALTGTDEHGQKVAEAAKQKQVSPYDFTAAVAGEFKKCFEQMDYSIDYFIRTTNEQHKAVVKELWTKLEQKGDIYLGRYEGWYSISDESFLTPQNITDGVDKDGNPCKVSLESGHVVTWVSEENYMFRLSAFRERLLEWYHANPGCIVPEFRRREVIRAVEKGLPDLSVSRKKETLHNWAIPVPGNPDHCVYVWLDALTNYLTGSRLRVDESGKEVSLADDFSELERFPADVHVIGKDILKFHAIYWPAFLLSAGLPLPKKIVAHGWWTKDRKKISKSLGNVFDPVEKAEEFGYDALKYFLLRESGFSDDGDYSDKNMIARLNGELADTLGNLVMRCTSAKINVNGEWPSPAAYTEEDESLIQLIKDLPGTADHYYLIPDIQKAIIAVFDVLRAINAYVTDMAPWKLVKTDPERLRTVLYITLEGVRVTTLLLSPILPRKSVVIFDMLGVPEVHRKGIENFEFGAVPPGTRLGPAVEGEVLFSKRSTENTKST
Chain of Steroidogenic factor 1 (Q13285 whole entry): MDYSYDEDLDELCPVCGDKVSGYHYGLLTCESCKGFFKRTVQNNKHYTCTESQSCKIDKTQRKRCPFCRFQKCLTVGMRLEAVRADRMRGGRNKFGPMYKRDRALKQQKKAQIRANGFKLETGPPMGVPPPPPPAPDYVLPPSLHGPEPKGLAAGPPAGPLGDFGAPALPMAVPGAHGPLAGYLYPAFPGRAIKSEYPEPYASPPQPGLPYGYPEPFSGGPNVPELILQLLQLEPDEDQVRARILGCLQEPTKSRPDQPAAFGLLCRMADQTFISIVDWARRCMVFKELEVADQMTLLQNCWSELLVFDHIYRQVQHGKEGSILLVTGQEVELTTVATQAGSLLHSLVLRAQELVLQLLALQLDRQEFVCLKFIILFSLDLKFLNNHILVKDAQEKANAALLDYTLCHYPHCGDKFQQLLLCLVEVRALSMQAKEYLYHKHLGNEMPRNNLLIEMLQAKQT
Chain of Neurotensin receptor type 1 (P30989 whole entry): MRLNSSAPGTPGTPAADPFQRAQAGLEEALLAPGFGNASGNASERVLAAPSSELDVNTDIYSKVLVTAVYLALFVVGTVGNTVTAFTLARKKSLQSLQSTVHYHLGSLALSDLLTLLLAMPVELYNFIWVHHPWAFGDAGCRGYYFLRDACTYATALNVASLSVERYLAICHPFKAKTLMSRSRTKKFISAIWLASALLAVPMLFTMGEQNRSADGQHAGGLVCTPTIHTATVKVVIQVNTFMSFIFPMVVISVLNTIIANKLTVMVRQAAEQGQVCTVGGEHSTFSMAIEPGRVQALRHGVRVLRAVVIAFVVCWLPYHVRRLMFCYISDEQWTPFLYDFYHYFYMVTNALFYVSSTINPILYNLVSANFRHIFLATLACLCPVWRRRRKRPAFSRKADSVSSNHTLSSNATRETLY

For `COc1ccc(NC(=S)N2CCC(c3nc4ccc(Cl)cc4[nH]3)CC2)c(OC)c1`, the half-maximal effective concentration (EC50) in test [1] is reported as > 195 µM (not active). Also, the IC50 in test [2] is 53.5 µM (inactive); in [3], 26.1 µM (inactive).

As to `Fc1ccccc1-c1nc(NC2CCCC2)c2ccccc2n1`, the IC50 in test [4] was 13.1 µM (active); in test [5] it was 7.48 µM (active).

Turning to `CCCC(C)C(=O)Nc1nc(C)c(-c2csc(Nc3cc(Cl)ccc3C)n2)s1` (centres undefined), the IC50 in test [6] is > 66.6 µM (inactive); in test [7], 10.2 µM (active).

Regarding `C/C(=N\NC(=O)c1ccccc1F)c1ccc2c(c1)Nc1ccccc1S2`, the IC50 was 11.2 µM (active) in test [8], 54.7 µM (active) in [9] and 10.5 µM (active) in test [10].

On to `CC(C)Nc1ccc(Nc2ccnc3cc4ccccc4cc23)cc1`, for which the EC50 in test [11] was 6.48 µM (active); with BJ [13], 9.05 µM (inconclusive); in test [14], 0.632 µM (active); in [15] it was 4.73 µM (active); in test [17], 12.2 µM (active); in the test on BJ [18] it was 3.71 µM (inconclusive). In addition, the concentration for a half-maximal effect (EC50) with BJ [19] was 5.35 µM (inconclusive). In addition, the CC50 in test [12] is 17.2 µM (active). For the same molecule, the IC50 in test [9] was 20 µM (active). The AC50 in test [16] is 51.2 µM (active); in the test on INS1, 3.15 µM (active); on Paired box protein Pax-8, 7.04 µM (active); in [20], 0.782 µM (active).

As to `O=C(CN1C(=O)NC2(CCCCC2)C1=O)NCCc1c[nH]c2ccccc12`, the figures for the IC50 (in [21]; at Steroidogenic factor 1; in test [22]) were 10.3 µM (inactive), 5.36 µM (active) and 35.9 µM (inactive), respectively.

`COc1ccc(N=C(S)N2CCC(c3nc4cc(Cl)ccc4[nH]3)CC2)c(OC)c1`: the IC50 in test [23] was 83.3 µM (inactive).

On to `Oc1ccc(C[C@H]2CNC(=S)N2CC2CCCN2C[C@H](Cc2ccccc2)N2C[C@H](Cc3ccc(O)cc3)N(CCc3ccccc3)C2=S)cc1` (some centres undefined), for which the figures for the IC50 in test [24] and in [25] were 30.5 µM (active) and 17 µM (active), respectively. Further, the AC50 on Paired box protein Pax-8 is 11.5 µM (active).

For the molecule `Cc1cc(C(=O)COc2cccnc2[N+](=O)[O-])c(C)n1-c1ccccc1`, the figures for the AC50 in [26], in test [27] and in [29] were 1.48 µM (active), > 70 µM (inactive) and 34.8 µM (active), respectively. For the same molecule, the IC50 in test [28] was 0.517 µM (active).

Source of the values: ChEMBL document CHEMBL1201862, “PubChem BioAssay data set” (2004).
